In brackets after ≈: the same amount, converted by molar mass.
Experiments:
[1] = tested on: Mycolicibacterium fortuitum; assay: Antitubercular activity against Mycobacterium fortuitum ATCC 6841 by NCCLS method; type: functional
[2] = tested on: Mycolicibacterium smegmatis; assay: Antibacterial activity against Mycobacterium smegmatis by NCCLS method; type: functional
[3] = tested on: Mycolicibacterium fortuitum; assay: Potency index, ratio of MIC for SPFX to MIC for test compound for antitubercular activity against Mycobacterium fortuitum ATCC 6841 by NCCLS method; type: functional
[4] = tested on: Mycolicibacterium smegmatis; assay: Potency index, ratio of MIC for SPFX to MIC for test compound for antibacterial activity against Mycobacterium smegmatis by NCCLS method; type: functional
[5] = Cytotoxicity against African green monkey Vero cells after 72 hrs by MTT assay; type: cell-based; details: chlorocebus sabaeus
[6] = tested on: Mycobacterium tuberculosis; assay: Antitubercular activity against Mycobacterium tuberculosis H37Rv ATCC 27294 assessed as growth inhibition at 6.25 ug/ml by broth dilution assay relative to control; type: functional; details: read-out: GI
[7] = tested on: Mycobacterium tuberculosis; assay: Antitubercular activity against Mycobacterium tuberculosis H37Rv ATCC 27294 by Alamar Blue assay; type: functional
Mycobacterium avium [8] = assay: Antitubercular activity against Mycobacterium avium; type: functional
Mycobacterium avium [9] = assay: Antitubercular activity against Mycobacterium avium after 14 days by two fold agar dilution method; type: functional; details: 336 h
[10] = tested on: Mycobacterium intracellulare; assay: Antitubercular activity against Mycobacterium intracellulare after 14 days by two fold agar dilution method; type: functional; details: 336 h
[11] = tested on: Mycobacterium tuberculosis; assay: Antitubercular activity against rifampicin-sensitive Mycobacterium tuberculosis after 21 days by two fold agar dilution method; type: functional; details: 504 h
Mycobacterium avium [12] = assay: Potency index, ratio of MIC for LVFX to MIC for test compound for antitubercular activity against Mycobacterium avium after 14 days by two fold agar dilution method; type: functional
Mycobacterium avium [13] = assay: Potency index, ratio of MIC for GTFX to MIC for test compound for antitubercular activity against Mycobacterium avium after 14 days by two fold agar dilution method; type: functional
Mycobacterium avium [14] = assay: Potency index, ratio of MIC for rifampicin to MIC for test compound for antitubercular activity against Mycobacterium avium after 14 days by two fold agar dilution method; type: functional
Mycobacterium avium [15] = assay: Potency index, ratio of MIC for isoniazid to MIC for test compound for antitubercular activity against Mycobacterium avium after 14 days by two fold agar dilution method; type: functional
[16] = tested on: Mycobacterium intracellulare; assay: Potency index, ratio of MIC for LVFX to MIC for test compound for antitubercular activity against Mycobacterium intracellulare after 14 days by two fold agar dilution method; type: functional
[17] = tested on: Mycobacterium intracellulare; assay: Potency index, ratio of MIC for GTFX to MIC for test compound for antitubercular activity against Mycobacterium intracellulare after 14 days by two fold agar dilution method; type: functional
[18] = tested on: Mycobacterium intracellulare; assay: Potency index, ratio of MIC for isoniazid to MIC for test compound for antitubercular activity against Mycobacterium intracellulare after 14 days by two fold agar dilution method; type: functional
[19] = tested on: Mycobacterium tuberculosis; assay: Potency index, ratio of MIC for LVFX to MIC for test compound for antitubercular activity against rifampicin-sensitive Mycobacterium tuberculosis after 21 days by two fold agar dilution method; type: functional
[20] = tested on: Mycobacterium tuberculosis; assay: Potency index, ratio of MIC for rifampicin to MIC for test compound for antitubercular activity against rifampicin-sensitive Mycobacterium tuberculosis after 21 days by two fold agar dilution method; type: functional
[21] = tested on: Mycobacterium tuberculosis; assay: Potency index, ratio of MIC for isoniazid to MIC for test compound for antitubercular activity against rifampicin-sensitive Mycobacterium tuberculosis after 21 days by two fold agar dilution method; type: functional
[22] = tested on: Mycobacterium intracellulare; assay: Antibacterial activity against Mycobacterium intracellulare after 7 days by two fold dilution assay; type: functional; details: 168 h
Mycobacterium xenopi = assay: Antibacterial activity against Mycobacterium xenopi after 7 days by two fold dilution assay; type: functional; details: 168 h
Mycobacteroides chelonae = assay: Antibacterial activity against Mycobacterium chelonae after 7 days by two fold dilution assay; type: functional; details: 168 h
[23] = tested on: Mycolicibacterium smegmatis; assay: Antibacterial activity against Mycobacterium smegmatis after 7 days by two fold dilution assay; type: functional; details: 168 h
[24] = tested on: Mycobacterium tuberculosis; assay: Antibacterial activity against Mycobacterium tuberculosis H37Rv after 7 days by two fold dilution assay; type: functional; details: 168 h
[25] = tested on: Mycobacterium tuberculosis; assay: Antitubercular activity against Mycobacterium tuberculosis H37Rv after 21 days by broth dilution assay; type: functional; details: 504 h
[26] = tested on: Mycolicibacterium smegmatis; assay: Antitubercular activity against Mycobacterium smegmatis after 30 to 32 hrs; type: functional
[27] = tested on: Mycobacterium tuberculosis; assay: Antitubercular activity against Mycobacterium tuberculosis H37Rv by serial dilution assay; type: functional
Staphylococcus aureus = assay: Antibacterial activity against Staphylococcus aureus after 18 hrs by broth microdilution assay; type: functional
Corynebacterium [28] = assay: Antibacterial activity against Corynebacterium ATCC-25365 after 18 hrs by broth microdilution assay; type: functional; details: ATCC-25365, 18 h
Corynebacterium [29] = assay: Antibacterial activity against Corynebacterium ATCC-29355 after 18 hrs by broth microdilution assay; type: functional; details: ATCC-29355, 18 h
[30] = Cytotoxicity against African green monkey Vero cells after 96 hrs by MTT assay; type: cell-based; details: chlorocebus sabaeus
[31] = Selectivity index, ratio of IC50 for African green monkey Vero cells to MIC for Mycobacterium tuberculosis H37Rv; type: toxicity
[32] = tested on: Mycobacterium tuberculosis; assay: Potency index, ratio of MIC for perfloxacin to MIC for test compound for antitubercular activity against Mycobacterium tuberculosis H37Rv by serial dilution assay; type: functional
[33] = tested on: Mycobacterium tuberculosis; assay: Antitubercular activity against non-replicating Mycobacterium tuberculosis H37Rv after 10 days by low oxygen recovery assay; type: functional; details: 240 h
[34] = tested on: Mycobacterium tuberculosis; assay: Antitubercular activity against replicating Mycobacterium tuberculosis H37Rv by Alamar Blue assay; type: functional
[35] = tested on: Mycobacterium tuberculosis; assay: Potency index, ratio of MIC for MXFX to MIC for test compound for antitubercular activity against non-replicating Mycobacterium tuberculosis H37Rv after 10 days by low oxygen recovery assay; type: functional
[36] = tested on: Mycolicibacterium smegmatis; assay: Antitubercular activity against Mycobacterium smegmatis CMCC 93202 after 72 hrs; type: functional; details: CMCC 93202, 72 h
[37] = tested on: Mycolicibacterium smegmatis; assay: Potency index, ratio of MIC for CPFX to MIC for test compound for antitubercular activity against Mycobacterium smegmatis CMCC 93202 after 72 hrs; type: functional
[38] = tested on: Mycolicibacterium smegmatis; assay: Potency index, ratio of MIC for 8-OMe CPFX to MIC for test compound for antitubercular activity against Mycobacterium smegmatis CMCC 93202 after 72 hrs; type: functional
[39] = tested on: Mycolicibacterium smegmatis; assay: Potency index, ratio of MIC for MXFX to MIC for test compound for antitubercular activity against Mycobacterium smegmatis CMCC 93202 after 72 hrs; type: functional
[40] = tested on: Mycolicibacterium smegmatis; assay: Potency index, ratio of MIC for rifampicin to MIC for test compound for antitubercular activity against Mycobacterium smegmatis CMCC 93202 after 72 hrs; type: functional

C[C@@H]1CN(c2c(F)c(N)c3c(=O)c(C(=O)O)cn(C4CC4)c3c2F)C[C@H](C)N1 [SPARFLOXACIN]
MIC [1]: 0.06 µg/mL (≈ 0.153 µM)
MIC [2]: 0.13 µg/mL (≈ 0.331 µM)

CC1(CN)CCN(c2cc3c(cc2F)c(=O)c(C(=O)O)cn3C2CC2)C1 (stereo not drawn)
MIC [1]: ≤ 0.03 µg/mL
MIC [2]: 0.06 µg/mL (≈ 0.167 µM)
Ratio [3]: >=2
Ratio [4]: >=2

CC1COc2c(N3CCN(S(=O)(=O)c4ccc([N+](=O)[O-])cc4)CC3)c(F)cc3c(=O)c(C(=O)O)cn1c23 (stereo not drawn)
CC50 at 72 h [5]: > 33 µg/mL
inhibition of growth at 6.25 µg/mL [6]: 99%
MIC [7]: 2.23 µg/mL (≈ 4.19 µM)

O=C(O)c1cn(-c2ccc(F)cc2)c2cc(N3CCNCC3)c(F)cc2c1=O [SARAFLOXACIN]
MIC (Mycobacterium avium [8]): 6.25 µg/mL (≈ 16.2 µM)

C[C@H]1COc2c(N3C[C@H]4CCCN[C@H]4C3)c(F)cc3c(=O)c(C(=O)O)cn1c23
MIC (Mycobacterium avium [9]): 0.2 to 1.7 µg/mL (≈ 0.516 to 4.39 µM)
MIC [10]: 0.2 to 1.7 µg/mL (≈ 0.516 to 4.39 µM)
MIC [11]: 0.2 to 1.7 µg/mL (≈ 0.516 to 4.39 µM)
Ratio (Mycobacterium avium [12]): 3.2 - 64.2
Ratio (Mycobacterium avium [13]): 3.2 - 64.2
Ratio (Mycobacterium avium [14]): 3.2 - 64.2
Ratio (Mycobacterium avium [15]): 3.2 - 64.2
Ratio [16]: 1.9 - 8.2
Ratio [17]: 1.9 - 8.2
Ratio [18]: 1.9 - 8.2
Ratio [19]: >=6.5 - 165
Ratio [20]: >=6.5 - 165
Ratio [21]: >=6.5 - 165

O=C(O)c1cn(-c2ccc(O)cc2)c2cc(N3CCNCC3)c(F)cc2c1=O
MIC (Mycobacterium avium [8]): 6.25 µg/mL (≈ 16.3 µM)

NNC(=O)c1ccncc1 [ISONIAZID]
MIC [22]: 12.5 µg/mL (≈ 91.1 µM)
MIC (Mycobacterium xenopi): 12.5 µg/mL (≈ 91.1 µM)
MIC (Mycobacteroides chelonae): 12.5 µg/mL (≈ 91.1 µM)
MIC [23]: 12.5 µg/mL (≈ 91.1 µM)
MIC [24]: 0.05 µg/mL (≈ 0.365 µM)
CC50 at 72 h [5]: 32 µg/mL (≈ 233 µM)
MIC [25]: 1.5 µg/mL (≈ 10.9 µM)

CCn1cc(C(=O)N/N=C/c2cccc(O)c2)c(=O)c2cc(F)c(N3CCN(C)CC3)cc21
MIC [26]: 27.2 µM (≈ 12.3 µg/mL)

CCn1cc(C(=O)N/N=C/c2c(Cl)cccc2Cl)c(=O)c2cc(F)c(N3CCN(C)CC3)cc21
MIC [26]: 27 µM (≈ 13.6 µg/mL)

CCn1cc(C(=O)O)c(=O)c2cc(F)c(N3CCN(C)CC3)cc21 [PEFLOXACIN]
MIC [27]: 4 µg/mL (≈ 12 µM)

Cn1cc(C(=O)O)c(=O)c2cc(F)c(N3CCN(c4nnc(SCC(=O)c5ccc([N+](=O)[O-])cc5)s4)CC3)cc21
MIC [25]: 0.5 µg/mL (≈ 0.855 µM)
MIC (Staphylococcus aureus): 0.5 to 1 µg/mL (≈ 0.855 to 1.71 µM)
MIC (Corynebacterium [28]): 0.5 to 1 µg/mL (≈ 0.855 to 1.71 µM)
MIC (Corynebacterium [29]): 0.5 to 1 µg/mL (≈ 0.855 to 1.71 µM)
CC50 at 96 h [30]: > 6.1 µg/mL
selectivity ratio [31]: > 12.2

CC1COc2c(N3CCN(C)CC3)c(F)cc3c(=O)c(C(=O)O)cn1c23 (stereo not drawn) [OFLOXACIN]
inhibition of growth at 6.25 µg/mL [6]: 62 to 96%

CCn1cc(C(=O)O)c(=O)c2cc(F)c(OCCOCCOCCOCCOCCOc3cc4c(cc3F)c(=O)c(C(=O)O)cn4CC)cc21
MIC [27]: 0.8 µg/mL (≈ 1.14 µM)
Ratio [32]: 5

CO[C@H]1/C=C/O[C@@]2(C)Oc3c(C)c(O)c4c(O)c(c(/C=N/N5CCN(C)CC5)c(O)c4c3C2=O)NC(=O)/C(C)=C\C=C\[C@H](C)[C@H](O)[C@@H](C)[C@@H](O)[C@@H](C)[C@H](OC(C)=O)[C@@H]1C [RIFAMPIN]
MIC [24]: 0.39 µg/mL (≈ 0.474 µM)
CC50 at 72 h [5]: 7.8 µg/mL (≈ 9.48 µM)
MIC [25]: 1 µg/mL (≈ 1.22 µM)

COc1c(N2C[C@@H]3CCCN[C@@H]3C2)c(F)cc2c(=O)c(C(=O)O)cn(C3CC3)c12 [MOXIFLOXACIN]
MIC [33]: 9.19 µg/mL (≈ 22.9 µM)
MIC [34]: 0.1 µg/mL (≈ 0.249 µM)

CCn1cc(C(=O)N/N=C2\C(=O)N(Cc3ccccc3)c3ccccc32)c(=O)c2ccc(C)nc21
MIC [22]: 0.625 µg/mL (≈ 1.34 µM)
MIC (Mycobacterium xenopi): 0.625 µg/mL (≈ 1.34 µM)
MIC (Mycobacteroides chelonae): 0.625 µg/mL (≈ 1.34 µM)
MIC [23]: 0.625 µg/mL (≈ 1.34 µM)

Cc1c(N2CCC(=CO)CC2)c(F)cc2c(=O)c(C(=O)O)cn(C3CC3)c12
MIC [33]: 2.95 µg/mL (≈ 7.92 µM)
MIC [34]: 0.1 µg/mL (≈ 0.269 µM)
Ratio [35]: 3.1

COc1ccc2cc(C(=O)CN3CCN(c4c(F)cc5c(=O)c(C(=O)O)cn(C6CC6)c5c4OC)CC3)c(=O)oc2c1
MIC [36]: 0.25 µg/mL (≈ 0.433 µM)
Ratio [37]: 2 - 8
Ratio [38]: 2 - 8
Ratio [39]: 2 - 8
Ratio [40]: 2 - 8

O=C(O)c1cn(C2CC2)c2cc(N3CCNCC3)c(F)cc2c1=O [CIPROFLOXACIN]
MIC (Staphylococcus aureus): 1 to 2 µg/mL (≈ 3.02 to 6.04 µM)
MIC (Corynebacterium [28]): 1 to 2 µg/mL (≈ 3.02 to 6.04 µM)
MIC (Corynebacterium [29]): 1 to 2 µg/mL (≈ 3.02 to 6.04 µM)
